In ChEMBL document CHEMBL5154813 (Eur J Med Chem, 2022):
The source made the active and inactive calls. The rule behind the calls is not given here.

Key:
[1] = molecular target: T1, Peroxisome proliferator-activated receptor alpha (Homo sapiens) (UniProt Q07869); assay: Agonist activity at yeast Gal4-fused human PPARalpha LBD transfected in human HepG2 cells assessed as transactivation by measuring beta-galactosidase activity incubated for 20 hrs by luminometry relative to control; assay type: cell-based
T1 sequence (whole entry): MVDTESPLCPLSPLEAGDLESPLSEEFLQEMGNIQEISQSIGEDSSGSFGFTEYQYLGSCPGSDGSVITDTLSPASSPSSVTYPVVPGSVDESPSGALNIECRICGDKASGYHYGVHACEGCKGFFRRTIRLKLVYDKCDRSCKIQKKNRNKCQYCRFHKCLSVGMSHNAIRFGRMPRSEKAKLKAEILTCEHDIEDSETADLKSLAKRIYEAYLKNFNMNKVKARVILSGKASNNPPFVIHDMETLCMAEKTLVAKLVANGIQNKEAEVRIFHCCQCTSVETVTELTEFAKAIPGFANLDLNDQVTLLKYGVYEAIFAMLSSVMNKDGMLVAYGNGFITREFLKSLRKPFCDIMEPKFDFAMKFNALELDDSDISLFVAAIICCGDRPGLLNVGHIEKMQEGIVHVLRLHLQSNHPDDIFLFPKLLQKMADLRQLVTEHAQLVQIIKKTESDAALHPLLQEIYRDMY

[2] = molecular target: T2, Peroxisome proliferator-activated receptor alpha (Homo sapiens, UniProt Q07869); assay: Agonist activity at yeast Gal4-fused human PPARalpha LBD transfected in human HepG2 cells assessed as transactivation by measuring beta-galactosidase activity incubated for 20 hrs by luminometry; assay type: cell-based
T2 sequence (Q07869 whole entry): T1 sequence (whole entry)

[3] = molecular target: T3, Peroxisome proliferator-activated receptor gamma (Homo sapiens, UniProt P37231); assay: Agonist activity at yeast Gal4-fused human PPARgamma transfected in human HepG2 cells assessed as transactivation by measuring beta-galactosidase activity incubated for 20 hrs by luminometry; assay type: cell-based
T3 sequence (P37231 whole entry): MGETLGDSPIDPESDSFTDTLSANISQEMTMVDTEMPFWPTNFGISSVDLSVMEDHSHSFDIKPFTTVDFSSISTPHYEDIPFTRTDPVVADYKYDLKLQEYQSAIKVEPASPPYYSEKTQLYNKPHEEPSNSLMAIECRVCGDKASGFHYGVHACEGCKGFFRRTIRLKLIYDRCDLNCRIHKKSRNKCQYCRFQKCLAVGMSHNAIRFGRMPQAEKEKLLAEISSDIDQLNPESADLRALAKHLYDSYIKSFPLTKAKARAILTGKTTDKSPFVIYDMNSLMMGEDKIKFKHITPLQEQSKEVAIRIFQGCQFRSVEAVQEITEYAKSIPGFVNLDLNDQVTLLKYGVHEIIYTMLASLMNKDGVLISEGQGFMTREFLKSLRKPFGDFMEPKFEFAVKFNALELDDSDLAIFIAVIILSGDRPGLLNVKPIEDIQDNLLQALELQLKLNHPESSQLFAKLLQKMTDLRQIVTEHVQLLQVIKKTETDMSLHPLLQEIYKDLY

[4] = molecular target: T4, Peroxisome proliferator-activated receptor delta (Homo sapiens, UniProt Q03181); assay: Agonist activity at yeast Gal4-fused human PPARdelta transfected in human HepG2 cells assessed as transactivation by measuring beta-galactosidase activity incubated for 20 hrs by luminometry; assay type: cell-based
T4 sequence (Q03181 whole entry): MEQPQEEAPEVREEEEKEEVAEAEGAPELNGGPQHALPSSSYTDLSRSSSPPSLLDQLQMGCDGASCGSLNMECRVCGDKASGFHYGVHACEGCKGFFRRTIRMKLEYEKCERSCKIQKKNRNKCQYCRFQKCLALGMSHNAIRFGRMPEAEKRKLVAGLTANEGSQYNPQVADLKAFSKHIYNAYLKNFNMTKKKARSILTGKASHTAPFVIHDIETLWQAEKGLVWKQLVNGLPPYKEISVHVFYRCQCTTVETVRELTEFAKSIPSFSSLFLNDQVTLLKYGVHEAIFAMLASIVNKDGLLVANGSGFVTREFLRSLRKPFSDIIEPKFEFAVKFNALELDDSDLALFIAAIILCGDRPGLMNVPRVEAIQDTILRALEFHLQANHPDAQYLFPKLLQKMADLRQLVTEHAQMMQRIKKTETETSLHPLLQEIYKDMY

[5] = molecular target: T5, Peroxisome proliferator-activated receptor (Homo sapiens) (UniProt P37231+Q07869+Q03181); assay: Agonist activity at PPAR in oleic acid-induced steatosis in human HepaRG cells assessed as increase in HMGCS2 mRNA levels at 100 uM treated for 2 weeks with media replenishment along with compound and inducer for every 2 days by RT-qPCR analysis; assay type: cell-based; settings: filed as agonist
[6] = molecular target: T5, Peroxisome proliferator-activated receptor (Homo sapiens); assay: Agonist activity at PPAR in oleic acid-induced steatosis in human HepaRG cells assessed as increase in liver CPT1a mRNA levels at 100 uM treated for 2 weeks with media replenishment along with compound and inducer for every 2 days by RT-qPCR analysis; assay type: cell-based; settings: filed as agonist
HepaRG [7] = assay: Reduction of lipid accumulation in oleic acid-induced steatosis in human HepaRG cells at 100 uM treated for 24 hrs by spectrophotometry; assay type: functional, cell-based
HepaRG [8] = assay: Reduction of lipid accumulation in oleic acid-induced steatosis in human HepaRG cells at 100 uM treated for 2 weeks with media replenishment along with compound and inducer for every 2 days by Oil Red O staining based microscopy; assay type: functional, cell-based
[9] = molecular target: T5, Peroxisome proliferator-activated receptor (Homo sapiens); assay: Agonist activity at PPAR in oleic acid-induced steatosis in human HepaRG cells assessed as increase in HMGCS2 mRNA levels at 100 uM treated for 24 hrs by RT-qPCR analysis; assay type: cell-based; settings: filed as agonist
[10] = molecular target: T5, Peroxisome proliferator-activated receptor (Homo sapiens); assay: Agonist activity at PPAR in oleic acid-induced steatosis in human HepaRG cells assessed as increase in FGF21 mRNA levels at 100 uM treated for 24 hrs by RT-qPCR analysis; assay type: cell-based; settings: filed as agonist
[11] = molecular target: T5, Peroxisome proliferator-activated receptor (Homo sapiens); assay: Agonist activity at PPAR in oleic acid-induced steatosis in human HepaRG cells assessed as increase in PDK4 mRNA levels at 100 uM treated for 24 hrs by RT-qPCR analysis; assay type: cell-based; settings: filed as agonist
[12] = molecular target: T5, Peroxisome proliferator-activated receptor (Homo sapiens); assay: Agonist activity at PPAR in oleic acid-induced steatosis in human HepaRG cells assessed as increase in FABP1 mRNA levels at 100 uM treated for 24 hrs by RT-qPCR analysis; assay type: cell-based; settings: filed as agonist
[13] = molecular target: T5, Peroxisome proliferator-activated receptor (Homo sapiens); assay: Agonist activity at PPAR in oleic acid-induced steatosis in human HepaRG cells assessed as increase in FGF21 mRNA levels at 100 uM treated for 2 weeks with media replenishment along with compound and inducer for every 2 days by RT-qPCR analysis; assay type: cell-based; settings: filed as agonist
[14] = molecular target: T5, Peroxisome proliferator-activated receptor (Homo sapiens); assay: Agonist activity at PPAR in oleic acid-induced steatosis in human HepaRG cells assessed as increase in FABP1 mRNA levels at 100 uM treated for 2 weeks with media replenishment along with compound and inducer for every 2 days by RT-qPCR analysis; assay type: cell-based; settings: filed as agonist
C2C12 [15] = assay: Induction of 2-NBD-glucose uptake in mouse C2C12 cells at 25 uM incubated in starvation medium with replacement of fresh medium for every 24 hrs for 96 hrs followed by insulin stimulation for 30 mins followed by 2-NBD-glucose treatment for 3 hrs by flow cytometric analysis; assay type: functional, cell-based; settings: time 99.5 hrs
HepaRG [16] = assay: Reduction of lipid accumulation in oleic acid-induced steatosis in human HepaRG cells at 100 uM treated for 24 hrs by Oil Red O staining based microscopy; assay type: functional, cell-based
HepaRG [17] = assay: Reduction of lipid accumulation in oleic acid-induced steatosis in human HepaRG cells at 100 uM treated for 2 weeks with media replenishment along with compound and inducer for every 2 days by spectrophotometry; assay type: functional, cell-based
C2C12 [18] = assay: Induction of 2-NBD-glucose uptake in mouse C2C12 cells at 25 uM incubated in starvation medium with replacement of fresh medium for every 24 hrs for 96 hrs followed by 2-NBD-glucose treatment for 3 hrs by flow cytometric analysis; assay type: functional, cell-based; settings: time 99.0 hrs
[19] = Permeability of compound in human Caco-2 cells; assay type: ADME, cell-based
HepaRG [20] = assay: Reduction of lipid accumulation in oleic acid-induced steatosis in human HepaRG cells at 250 uM treated for 2 weeks with media replenishment along with compound and inducer for every 2 days by Oil Red O staining based microscopy; assay type: functional, cell-based
HepaRG [21] = assay: Reduction of lipid accumulation in oleic acid-induced steatosis in human HepaRG cells at 250 uM treated for 2 weeks with media replenishment along with compound and inducer for every 2 days by spectrophotometry; assay type: functional, cell-based
HepaRG [22] = assay: Reduction of lipid accumulation in oleic acid-induced steatosis in human HepaRG cells at 10 uM treated for 2 weeks with media replenishment along with compound and inducer for every 2 days by Oil Red O staining based microscopy; assay type: functional, cell-based
HepaRG [23] = assay: Reduction of lipid accumulation in oleic acid-induced steatosis in human HepaRG cells at 10 uM treated for 2 weeks with media replenishment along with compound and inducer for every 2 days by spectrophotometry; assay type: functional, cell-based

O=C(NC(CSCc1ccc(C(=O)c2ccccc2)cc1)C(=O)O)c1ccccc1 (stereo not given)
Emax [1]: 21%

CC(C)(C)OC(=O)NC(CSCc1ccc(C(=O)c2ccccc2)cc1)C(=O)O (stereo not given)
EC50 [2]: 1.6 µM | Emax ([1]; filed as agonist): 83% | EC50 [3]: 10.3 µM | EC50 [4]: 37.1 µM

CC(C)(C)OC(=O)NC(CSCc1ccc(C(=O)c2ccc(Cl)cc2)cc1)C(=O)O (stereo not given)
EC50 [2]: 0.37 µM | Emax ([1]; filed as agonist): 95% | EC50 [3]: 3.2 µM

CC(C)(C)OC(=O)NC(CSCc1ccc(C(=O)c2ccc(C(F)(F)F)cc2)cc1)C(=O)O (stereo not given)
EC50 [2]: 0.25 µM | Emax ([1]; filed as agonist): 77% | EC50 [3]: 2.2 µM

O=C(NC(CSCc1ccc(-c2ccc(Cl)cc2)cc1)C(=O)O)OCc1ccccc1 (stereo not given)
EC50 [2]: 0.135 µM | Emax ([1]; filed as agonist): 138%

CC(C)(C)OC(=O)NC(CSCc1ccc(-c2ccccc2)cc1)C(=O)O (stereo not given)
EC50 [2]: 0.71 µM | Emax ([1]; filed as agonist): 108% | EC50 [3]: 3.9 µM

CC(C)(C)OC(=O)NC(CSCc1ccc(/C=C/C(=O)c2ccccc2)cc1)C(=O)O (stereo not given)
EC50 [2]: 0.8 µM | Emax ([1]; filed as agonist): 94% | EC50 [3]: 10.2 µM

CC(C)(C)OC(=O)NC(COCc1ccc(-c2ccccc2)cc1)C(=O)O (stereo not given)
EC50 [2]: 7.2 µM | Emax ([1]; filed as agonist): 100% | EC50 [3]: 13 µM

CC(C)(C)OC(=O)NC(COCc1ccc(Cc2ccccc2)cc1)C(=O)O (stereo not given)
EC50 [2]: 10 µM | Emax ([1]; filed as agonist): 52%

O=C(NC(CSCc1ccc(C(=O)c2ccccc2)cc1)C(=O)O)OCc1ccccc1 (stereo not given)
EC50 [2]: 1.9 µM | Emax ([1]; filed as agonist): 90% | EC50 [3]: 7.9 µM

CC(C)(C)OC(=O)NC(CSCc1ccc(C(=O)c2ccc([N+](=O)[O-])cc2)cc1)C(=O)O (stereo not given)
EC50 [2]: 4.8 µM | Emax ([1]; filed as agonist): 103% | EC50 [3]: 12.8 µM

CC(C)(C)OC(=O)NC(CSCc1ccccc1)C(=O)O (stereo not given)
EC50 [2]: 1.45 µM | Emax ([1]; filed as agonist): 118% | EC50 [3]: 25.7 µM

COc1ccc(C(=O)c2ccc(CSCC(NC(=O)OC(C)(C)C)C(=O)O)cc2)cc1 (stereo not given)
EC50 [2]: 0.38 µM | Emax ([1]; filed as agonist): 99% | EC50 [3]: 7.5 µM

CC(C)(C)OC(=O)N[C@@H](CSCc1ccc(C(=O)c2ccccc2)cc1)C(=O)O
Activity [5]: Active | Activity [6]: Active | EC50 [2]: 1.6 µM | Emax ([1]; filed as agonist): 108% | EC50 [3]: 8.4 µM | EC50 [4]: 28 µM | Activity (HepaRG [7]): Active | Activity (HepaRG [8]): Active | Activity [9]: Active | Activity [10]: Active | Activity [11]: Active | Activity [12]: Active | Activity [13]: Active | Activity [14]: Active | Activity (C2C12 [15]): Active | Activity (HepaRG [16]): Active | Activity (HepaRG [17]): Active | Activity (C2C12 [18]): Active | permeability [19]: Permeable

O=C(Cc1ccccc1)NC(CSCc1ccccc1)C(=O)O (stereo not given)
EC50 [2]: 2.55 µM | Emax ([1]; filed as agonist): 148% | EC50 [3]: 10.9 µM

CC(C)(C)OC(=O)NC(COCc1ccc(C(=O)c2ccccc2)cc1)C(=O)O (stereo not given)
EC50 [2]: 12.1 µM | Emax ([1]; filed as agonist): 49% | EC50 [3]: 20 µM

CC(SCc1ccccc1)C(NC(=O)c1ccccc1)C(=O)O (stereo not given)
EC50 [2]: 9.1 µM | Emax ([1]; filed as agonist): 48%

CC(C)(C)OC(=O)NC(CSCc1ccc(Cc2ccccc2)cc1)C(=O)O (stereo not given)
EC50 [2]: 0.58 µM | Emax ([1]; filed as agonist): 64% | EC50 [3]: 3.4 µM

Cc1ccc(C(=O)c2ccc(CSCC(NC(=O)OC(C)(C)C)C(=O)O)cc2)cc1 (stereo not given)
EC50 [2]: 0.94 µM | Emax ([1]; filed as agonist): 89% | EC50 [3]: 4.6 µM

CC(C)OC(=O)C(C)(C)Oc1ccc(C(=O)c2ccc(Cl)cc2)cc1
Activity (HepaRG [20]): Active | Activity (HepaRG [21]): Active

CN(CCOc1ccc(CC2SC(=O)NC2=O)cc1)c1ccccn1 (stereo not given)
Activity (HepaRG [22]): Active | Activity (HepaRG [23]): Active

O=C(NC(CSCc1ccc(Cc2ccc(Cl)cc2)cc1)C(=O)O)OCc1ccccc1 (stereo not given)
EC50 [2]: 0.016 µM | Emax ([1]; filed as agonist): 165%
